Consider five compounds from BindingDB's records for doi:10.7270/Q2FF3QRT (University of Pittsburgh, 2006).

This assay concerns the target T1, M-phase inducer phosphatase 2 (Homo sapiens, UniProt P30305).
T1 sequence (P30305 whole entry): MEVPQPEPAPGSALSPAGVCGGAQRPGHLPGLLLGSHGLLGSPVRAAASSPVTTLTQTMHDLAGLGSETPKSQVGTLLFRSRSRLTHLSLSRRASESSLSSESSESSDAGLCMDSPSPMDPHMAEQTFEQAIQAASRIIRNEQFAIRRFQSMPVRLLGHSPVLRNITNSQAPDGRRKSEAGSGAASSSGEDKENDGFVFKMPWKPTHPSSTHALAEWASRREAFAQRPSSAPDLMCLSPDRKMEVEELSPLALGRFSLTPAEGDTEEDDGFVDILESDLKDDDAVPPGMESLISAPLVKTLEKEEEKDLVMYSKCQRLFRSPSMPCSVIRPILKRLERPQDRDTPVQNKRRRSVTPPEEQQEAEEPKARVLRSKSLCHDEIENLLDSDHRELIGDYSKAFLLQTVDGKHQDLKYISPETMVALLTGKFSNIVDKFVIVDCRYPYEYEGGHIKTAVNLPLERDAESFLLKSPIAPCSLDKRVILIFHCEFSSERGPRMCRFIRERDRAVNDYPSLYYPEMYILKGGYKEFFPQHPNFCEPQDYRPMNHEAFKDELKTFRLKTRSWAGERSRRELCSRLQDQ
Description: inhibition of Cdc25B catalytic domain activity – biochemical, dose response, selectivity assay, confirmation (AID 443).
By IC50 is commonly meant the concentration needed to halve the response being measured. A high value points to lower potency. As for `CCCCC[C@H](O)C=C[C@H]1C=CC(=O)[C@@H]1C/C=C\CCCC(=O)O` [(Z)-7-[(1R,5S)-2-oxidanylidene-5-[(E,3S)-3-oxidanyloct-1-enyl]cyclopent-3-en-1-yl]hept-5-enoic acid], inhibition was half-maximal at 43.1 µM (IC50).

Regarding `CCn1nc(-c2ccccc2)nc2c(=O)n(C)c(=O)nc1-2` [1-Ethyl-6-methyl-3-phenyl-1H-pyrimido[5,4-e][1,2,4]triazine-5,7-dione], half-maximal inhibition (IC50) was put at 0.223 µM.

Turning to `COc1ccc(Cn2c(C)nc3c(c2=O)c2nc4ccccc4nc2n3Cc2ccco2)cc1` [MLS000079944], the half-maximal inhibitory concentration (IC50) was 31.5 µM.

In the case of `Cc1ccc2c(c1C)NC(C(=O)O)C1CC=CC21` (stereo not given), the midpoint of inhibition, the IC50, lay at 10.6 µM.

Consider `CC(C)Cn1c(N)c(C(=O)COC(=O)c2cc(-c3ccco3)nc3ccccc23)c(=O)n(C)c1=O` [2-(2-furanyl)-4-quinolinecarboxylic acid [2-[4-amino-1-methyl-3-(2-methylpropyl)-2,6-dioxo-5-pyrimidinyl]-2-oxoethyl] ester], for which half-maximal inhibition (IC50) required 13.1 µM.
